Results from US5120752A, “Cyclopropyl derivative lipoxygenase inhibitors” (Abbott Laboratories, priority 1990, dated 1992).
pIC50: −log10 of the molar value.

Key:
[1] = tested on: LTB4 biosynthesis in human whole blood; assay: Inhibition of calcium ionophore-induced LTB4 biosynthesis in human whole blood; assay type: cell-based; settings: for pIC50: A23187 50 μM, 15 min preincubation, read-out: Inhibition of Leukotriene Biosynthesis IC50; for inhibition at 0.2 µM: read-out: Inhibition of Leukotriene Biosynthesis (% at 0.2 μM)
Procedure: Inhibition of leukotriene biosynthesis was evaluated in an assay, involving calcium ionophore-induced LTB4 biosynthesis expressed by human whole blood. Heparinized (20 U/mL) human blood (0.3 mL) was preincubated with test compound or vehicle for 15 min. at 37° C. Eicosanoid biosynthesis was initiated by adding calcium ionophore (A23187) in DMSO to a final concentration of 50 μM and terminated after 30 min. by rapid cooling of the blood in an ice bath and centrifuging at 3° C. for 10 min at 2500×g. The plasma was mixed with 4 volumes of methanol and allowed to stand for at least 30 min. at 3° C. prior to centrifuging at 1800×g for 10 min. The level of LTB4 in aliquots of the methanol-plasma extract was analyzed by radio-immunoassay or enyme-immunoassay techniques.

leukotriene biosynthesis = assay: Inhibition of leukotriene biosynthesis in vivo after oral administration, rat peritoneal anaphylaxis model; settings: 100 μmol/kg oral (gavage), 1 h before antigen challenge, read-out: % Inhibition of Leukotrienes at 100 μmol/kg oral dose
Procedure: Inhibition of the biosynthesis of leukotrienes in vivo after oral administration of representative test compounds of this invention was determined using a rat peritoneal anaphylaxis model in a similar manner as that described by Young and coworkers (Young, P. R.; Dyer, R. D.; Carter, G. W. Fed. Proc., Fed. Am. Soc. Exp. Biol. 1985, 44, 1185). In this model rats were injected intraperitoneally (ip) with rabbit antibody to bovine serum albumin (BSA) and three hours later injected ip with BSA to induce an antgen-antibody response. Rats were sacrificed 15 minutes after this challenge and the peritoneal fluids were collected and analyzed for leukotriene levels. Test compounds were administered by gavage one hour prior to the antigen challenge. Percent inhibition values were determined by comparing the treatment group to the mean of the control group. The results of this assay, for representative compounds of the present invention, at an oral dose level of […] are presented in Table 2, and at an oral dose of […] in Table 3.

SMILES | pIC50 [1] | inhibition in vivo at 100 µmol/kg (leukotriene biosynthesis) [%] | inhibition at 0.2 µM [1] [%] | inhibition at 0.1 µM ([1]; 0.1 μM, read-out: Inhibition of Leukotriene Biosynthesis (% at 0.1 μM)) [%]
CC([C@@H]1C[C@H]1c1ccsc1)N(O)C(N)=O (stereo partly drawn) [Example 189, N-(1-trans-(2-(3-thienyl)cyclopropyl)ethyl)-N-hydroxyurea] | 6.17 | 73 |  | 
Cc1cccc(Oc2cccc([C@@H]3C[C@H]3CN(O)C(N)=O)c2)c1 (relative stereo) [Example 174, N-(1-trans-(2-(3-(3-methylphenoxy)phenyl)cyclopropyl)methyl)-N-hydroxyurea] | 6.85 | 96 |  | 
NC(=O)N(O)C[C@@H]1C[C@H]1c1cccc(Oc2cccnc2)c1 (relative stereo) [Example 168, N-(1-trans-(2-(3-(3-pyridyloxy)phenyl)cyclopropyl)methyl)-N-hydroxyurea] | 7.30 | 99 |  | 
NC(=O)N(O)C[C@@H]1C[C@H]1c1cccs1 (relative stereo) [Example 194, N-(1-trans-(2-(2-thienyl)cyclopropyl)methyl)-N-hydroxyurea] | 6.43 | 97 |  | 
NC(=O)N(O)C[C@@H]1C[C@H]1c1cccc(Oc2cccs2)c1 (relative stereo) [Example 178, N-(1-trans-(2-(3-(2-thienyloxy)phenyl)cyclopropyl)methyl)-N-hydroxyurea] |  | 60 | 64 | 
CCCc1ccc(Oc2cccc([C@@H]3C[C@H]3CN(O)C(N)=O)c2)cc1 (relative stereo) [Example 169, N-(1-trans-(2-(3-(4-propylphenoxy)phenyl)cyclopropyl)methyl)-N-hydroxyurea] | 6.77 | 98 |  | 
Cc1ccccc1Oc1cccc([C@@H]2C[C@H]2CN(O)C(N)=O)c1 (relative stereo) [Example 170, N-(1-trans-(2-(3-(2-methylphenoxy)phenyl)cyclopropyl)methyl)-N-hydroxyurea] |  | 94 |  | 89
CNC(=O)N(O)C[C@@H]1C[C@H]1c1cccc(Oc2ccc(C)cc2)c1 (relative stereo) [Example 179, N-(1-trans-(2-(3-(4-methylphenoxy)phenyl)cyclopropyl)methyl)-N-hydroxy-N'-methylurea] |  | 61 | 61 | 
CCOc1ccc(Oc2cccc([C@@H]3C[C@H]3CN(O)C(N)=O)c2)cc1 (relative stereo) [Example 167, N-(1-trans-(2-(3-(4-ethoxyphenoxy)phenyl)cyclopropyl)methyl)-N-hydroxyurea] | 7.40 | 94 |  | 
NC(=O)N(O)C[C@@H]1C[C@H]1c1ccoc1 (relative stereo) [Example 193, N-(1-trans-(2-(3-furanyl)cyclopropyl)methyl)-N-hydroxyurea] | 6.64 | 93 |  | 
CC([C@@H]1C[C@H]1c1cccc(Oc2ccccn2)c1)N(O)C(N)=O (single isomer, unassigned) [Example 172a, N-(1-trans-(2-(3-(2-pyridyloxy)phenyl)cyclopropyl)ethyl)-N-hydroxyurea] | 6.02 |  |  | 
CNC(=O)N(O)C[C@@H]1C[C@H]1c1ccoc1 (relative stereo) [Example 185, N-(1-trans-(2-(3-furanyl)cyclopropyl)methyl)-N-hydroxy-N'-methylurea] | 6.62 |  |  | 
CC(=O)N(O)C[C@@H]1C[C@H]1c1cccs1 (relative stereo) [Example 190, N-(1-trans-(2-(2-thienyl)cyclopropyl)methyl)-N-hydroxyacetamide] | 6.70 |  |  | 
CC(=O)N(O)C[C@@H]1C[C@H]1c1ccco1 (relative stereo) [Example 195, N-(1-trans-(2-(2-furanyl)cyclopropyl)methyl)-N-hydroxyacetamide] | 6.72 |  |  | 
CNC(=O)N(O)C[C@@H]1C[C@H]1c1cccc(Oc2ccc(F)cc2)c1 (relative stereo) [Example 177, N-(1-trans-(2-(3-(4-fluorophenoxy)phenyl)cyclopropyl)methyl)-N-hydroxy-N'-methylurea] |  |  | 69 | 
